Reference: US11814376B2, “Hepatitis b core protein modulators” (Assembly Biosciences, Inc., priority 2015, dated 2023)

What was measured:
[1] = tested on: HBV viral load in AD38 cells; experiment: Viral load production in AD38 cells, quantitative PCR of the core sequence in supernatant; type: cell-based; details: Hepatitis B virus, 144 h, 10 μM compound, 6 days at 37° C., supernatant qPCR, relative to DMSO control; read-out: AD38 Viral Load (%) (VL with cmpd/VL in DMSO control) at 10 μM
AD38 cells = experiment: Viability of AD38 cells (Promega CellTiter-Glo); type: cell-based; details: 10 μM compound, 6 days, CellTiter-Glo luminescence normalized to DMSO control (100%)
Method in brief: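 AD38 cells were seeded at 50,000/well on collagen-coated plates and treated with compound added as a 10× solution in 10% DMSO for 6 days at 37° C. Viability was measured by CellTiter-Glo luminescence in tetracycline-free medium with 2% FBS and 1% DMSO, and expressed as percent of DMSO control.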

Cc1c(C(=O)NCc2cnc(-c3ccc(C#N)cc3)s2)ccc2c1NC(=O)c1ccccc1O2 [compound 1942]
activity at 10 µM [1]: 3%
AD38 Viability Normalized Result (cmpd/DMSO %) at 10 μM (AD38 cells): 106%

O=C(NCc1cnc(-c2ccccc2)s1)c1ccc2c(c1)NC(=O)c1ccccc1S2(=O)=O [compound 1525]
activity at 10 µM [1]: 0.2%
AD38 Viability Normalized Result (cmpd/DMSO %) at 10 μM (AD38 cells): 104%

N#Cc1ncc(CNC(=O)c2ccc3c(c2)NC(=O)c2ccccc2S3)s1 [compound 1627]
activity at 10 µM [1]: 6%
AD38 Viability Normalized Result (cmpd/DMSO %) at 10 μM (AD38 cells): 63%

O=C(NCc1cnc(-c2cncnc2)s1)c1ccc2c(c1)NC(=O)c1ccccc1S2(=O)=O [compound 1626]
activity at 10 µM [1]: 2.7%
AD38 Viability Normalized Result (cmpd/DMSO %) at 10 μM (AD38 cells): 99%

COc1ncc(-c2ncc(CNC(=O)c3ccc4c(c3)NC(=O)c3ccccc3O4)s2)cn1 [1709-A, N-((2-(2-methoxypyrimidin-5-yl)thiazol-5-yl)methyl)-11-oxo-10, 11-dihydrodibenzo [b, f] [1, 4] oxazepine-8-carboxamide]
activity at 10 µM [1]: 29.5%
AD38 Viability Normalized Result (cmpd/DMSO %) at 10 μM (AD38 cells): 106%

Cl.NCCNC(=O)c1ccc(-c2ncc(CNC(=O)c3ccc4c(c3)NC(=O)c3ccccc3S4(=O)=O)s2)cc1 [compound 11017, N-((2-(4-((2-aminoethyl)carbamoyl)phenyl)thiazol-5-yl)methyl)-11-oxo-10, 11-dihydrodibenzo [b, f] [1, 4] thiazepine-8-carboxamide 5,5-dioxide hydrochloride]
activity at 10 µM [1]: 21%
AD38 Viability Normalized Result (cmpd/DMSO %) at 10 μM (AD38 cells): 86%

O=C(NCc1cnc(-c2ccc(O)cc2)s1)c1ccc2c(c1)NC(=O)c1ccc(F)cc1S2 [compound 1747]
activity at 10 µM [1]: 3%
AD38 Viability Normalized Result (cmpd/DMSO %) at 10 μM (AD38 cells): 95%

CN(C)CCC#Cc1ccc(-c2ncc(CNC(=O)c3ccc4c(c3)NC(=O)c3ccccc3S4(=O)=O)s2)cc1 [compound 11003, N-((2-(4-(4-(dimethylamino)but-1-yn-1-yl)phenyl)thiazol-5-yl)methyl)-11-oxo-10, 11-dihydrodibenzo [b, f] [1, 4] thiazepine-8-carboxamide 5,5-dioxide]
activity at 10 µM [1]: 0.3%
AD38 Viability Normalized Result (cmpd/DMSO %) at 10 μM (AD38 cells): 97%

O=C(NCc1cnc(N2CCOCC2)s1)c1ccc2c(c1)NC(=O)c1ccccc1S2 [compound 1598]
activity at 10 µM [1]: 1.4%
AD38 Viability Normalized Result (cmpd/DMSO %) at 10 μM (AD38 cells): 97%

N#Cc1ccc(-c2ncc(CNC(=O)c3ccc4c(c3)NC(=O)c3ccccc3S4(=O)=O)s2)cc1 [1654-A, N-((2-(4-cyanophenyl)thiazol-5-yl)methyl)-11-oxo-10, 11-dihydrodibenzo [b, f] [1, 4] thiazepine-8-carboxamide 5,5-dioxide]
activity at 10 µM [1]: 2.6%
AD38 Viability Normalized Result (cmpd/DMSO %) at 10 μM (AD38 cells): 68%

O=C(NCc1cnc(-c2ccc(O)cc2)s1)c1ccc2c(c1)NC(=O)c1cccc(F)c1S2 [compound 1753]
activity at 10 µM [1]: 2.4%
AD38 Viability Normalized Result (cmpd/DMSO %) at 10 μM (AD38 cells): 97%

COC(=O)c1ccc(-c2ncc(CNC(=O)c3ccc4c(c3)NC(=O)c3ccccc3S4)s2)cc1 [1599-A, methyl 4-(5-((11-oxo-10, 11-dihydrodibenzo [b, f] [1, 4]thiazepine-8-carboxamido)methyl)thiazol-2-yl) benzoate]
activity at 10 µM [1]: 50.9%
AD38 Viability Normalized Result (cmpd/DMSO %) at 10 μM (AD38 cells): 98%

O=C1Cc2cc(-c3ncc(CNC(=O)c4ccc5c(c4)NC(=O)c4ccccc4O5)s3)ccc2N1 [compound 1833]
activity at 10 µM [1]: 67.4%
AD38 Viability Normalized Result (cmpd/DMSO %) at 10 μM (AD38 cells): 102%

O=C(NCc1cnc(Cc2ccc(O)cc2)s1)c1ccc2c(c1)NC(=O)c1ccccc1O2 [compound 1835, N-((2-(4-hydroxybenzyl)thiazol-5-yl)methyl)-11-oxo-10, 11-dihydrodibenzo [b, f] [1, 4] oxazepine-8-carboxamide]
activity at 10 µM [1]: 12.3%
AD38 Viability Normalized Result (cmpd/DMSO %) at 10 μM (AD38 cells): 94%

CN(C)c1ccc(-c2ncc(CNC(=O)c3ccc4c(c3)NC(=O)c3ccccc3S4(=O)=O)s2)cc1 [compound 1645]
activity at 10 µM [1]: 6.7%
AD38 Viability Normalized Result (cmpd/DMSO %) at 10 μM (AD38 cells): 101%
